According to US20250319047A1, “ANTIMICROBIAL TREATMENT AND PREVENTION BY PERILLYL ALCOHOL AND DERIVATIVES” (priority 2024, published 2025):

Assays:
[1] = acids formed by oxidation of POH/PCO; cited from earlier work
[2] = in vivo
Excerpt: (§1) The antimicrobial effectiveness of POH diminishes in more dilute solutions. […] However, POH at concentrations equal to and higher than 4% will cause skin irritation and thus are not practical for clinical applications. Therefore, the highest concentration proposed is 3% to maintain a practical clinical range.

[3] = system: all microorganisms; assay: Challenge of antimicrobial effectiveness of POH by concentration; format: cell-based
Excerpt: as §1

[4] = rats, prior systemic studies; cited from earlier work
[5] = humans, dogs, and rats; cited from earlier work

SMILES | antimicrobial activity [1] | concentration that will cause skin irritation [2] [%] | antimicrobial effectiveness ([3]; 0.1% concentration) | antimicrobial effectiveness ([3]; over 90% concentrations) | metabolization, detection of parent compound [4] | metabolization [5]
C=C(C)C1CCC(C(=O)O)CC1 (stereo not shown) [Dihydroperillic] | lose the antimicrobial activity | – | – | – | – | –
C=C(C)[C@@H]1CC=C(C(=O)O)CC1 [Perillic] | lose the antimicrobial activity | – | – | – | – | –
C=C(C)[C@@H]1CC=C(CO)CC1 [Perillyl alcohol, perillyl alcohol] | – | ≥ 4 | reasonable against all microorganisms | eradicating the microorganisms completely | not detected | rapidly metabolized
